Data from patent US20260071220A1, “CONJUGATE OF NUCLEOTIDE ANALOG-CONTAINING DOUBLE-STRANDED RNAI ANALOG” (BaseCure Therapeutics LLC, priority 2022, published 2026).
In the oligonucleotide strings, read from the 5' end, every base follows the letter of its sugar. An asterisk marks phosphorothioate; unmarked linkages are phosphodiester. Other units and linkages are bracketed, terminal groups are in braces. A string of capitals states the bases alone. {D01} = GalNAc ligand D01, attached to sense strand by a phosphodiester bond; m = 2'-O-methyl; f = 2'-fluoro

What was measured:
hTLR3 = target: T1, hTLR3 (Homo sapiens, UniProt O15455); experiment: Agonistic activity on hTLR3 cells (HEK BLUE, QUANTI-Blue OD650); type: cell-based; conditions: 24 h, transfection with RNAiMAX, maximum concentration 200 nM, read-out: EC50
T1 construct: host or cells: HEK BLUE hTLR3 (HEK293-derived SEAP reporter line)
T1 sequence (O15455 24-904): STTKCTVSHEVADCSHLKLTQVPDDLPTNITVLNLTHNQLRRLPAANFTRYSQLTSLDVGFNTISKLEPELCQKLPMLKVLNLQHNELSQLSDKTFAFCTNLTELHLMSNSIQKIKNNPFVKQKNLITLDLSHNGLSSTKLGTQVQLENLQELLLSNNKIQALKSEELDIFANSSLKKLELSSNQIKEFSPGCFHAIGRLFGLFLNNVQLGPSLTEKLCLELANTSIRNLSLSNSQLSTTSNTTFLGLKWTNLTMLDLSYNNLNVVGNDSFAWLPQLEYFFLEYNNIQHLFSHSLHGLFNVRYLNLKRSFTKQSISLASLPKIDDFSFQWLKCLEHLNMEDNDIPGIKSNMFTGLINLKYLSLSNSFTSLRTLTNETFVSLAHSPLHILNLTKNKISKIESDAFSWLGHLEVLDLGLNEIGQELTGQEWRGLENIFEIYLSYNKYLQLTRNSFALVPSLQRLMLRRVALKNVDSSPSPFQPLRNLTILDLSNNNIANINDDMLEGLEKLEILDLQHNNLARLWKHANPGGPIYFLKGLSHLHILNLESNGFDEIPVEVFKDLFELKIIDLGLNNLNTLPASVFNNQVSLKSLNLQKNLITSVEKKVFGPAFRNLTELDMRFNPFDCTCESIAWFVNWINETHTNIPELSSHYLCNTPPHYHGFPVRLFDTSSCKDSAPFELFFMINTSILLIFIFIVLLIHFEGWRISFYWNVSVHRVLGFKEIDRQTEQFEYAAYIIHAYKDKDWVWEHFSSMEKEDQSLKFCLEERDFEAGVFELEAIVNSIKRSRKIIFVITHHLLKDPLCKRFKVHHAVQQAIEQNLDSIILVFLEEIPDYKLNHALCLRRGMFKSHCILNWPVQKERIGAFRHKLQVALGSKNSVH
Protocol: (§1) 1) The conjugate of the present invention was diluted to a concentration that was 20 times a final concentration, the diluted conjugate was mixed with RNAiMAX-OPTI MEM (RNAiMAX:OPTI MEM=3:47) at a ratio of 1:1 and incubated for 15 min at room temperature.
(§2) 2) 10 μL of incubated conjugate of the present invention was added into a corresponding cell plate, with 10 concentrations in total, a maximum concentration being 200 nM, and double duplicated wells for each concentration.
(§3) 10 μL of 0.5 μM BLOCK-iT™ Alexa Fluor® Red Fluorescent Control was added into 2 transfection positive control wells.
(§4) 4) 90 μL of cells were seeded into a 96-well plate with the conjugate at the density of 50,000 cells/well.
(§5) 5) The conjugate of the present invention and the cells were co-incubated for 24 h in an incubator under the conditions of 37° C. and 5% CO2.
(§6) 7) Compound activity detection: 20 μL of cell supernatant was taken from each well and added into an experimental plate containing 180 μL of QUANTI-Blue™ reagent and then incubated for 1 h at 37° C., followed by detecting an absorbance values at 650 nm (OD650) using the multifunctional microplate reader Flexstation III.
(§7) Compound activity: the OD650 values were analyzed using GraphPad Prism software, and a dose effect curve of the compound was fit, and the EC50 value of the compound was calculated. Cell activity detection: the calculation formula of cell activity % was as follows. The cell activity % value was analyzed using GraphPadPrism software, the dose effect curve of the compound was fit, and the CC50 value of the compound on cell was calculated.

hTLR8 = target: T2, hTLR8 (Homo sapiens, UniProt Q9NR97); experiment: Agonistic activity on hTLR8 cells (HEK BLUE, QUANTI-Blue OD650); type: cell-based; conditions: 24 h, transfection with RNAiMAX, maximum concentration 200 nM
T2 construct: host or cells: HEK BLUE hTLR8 (HEK293-derived SEAP reporter line)
T2 sequence (Q9NR97 27-1041): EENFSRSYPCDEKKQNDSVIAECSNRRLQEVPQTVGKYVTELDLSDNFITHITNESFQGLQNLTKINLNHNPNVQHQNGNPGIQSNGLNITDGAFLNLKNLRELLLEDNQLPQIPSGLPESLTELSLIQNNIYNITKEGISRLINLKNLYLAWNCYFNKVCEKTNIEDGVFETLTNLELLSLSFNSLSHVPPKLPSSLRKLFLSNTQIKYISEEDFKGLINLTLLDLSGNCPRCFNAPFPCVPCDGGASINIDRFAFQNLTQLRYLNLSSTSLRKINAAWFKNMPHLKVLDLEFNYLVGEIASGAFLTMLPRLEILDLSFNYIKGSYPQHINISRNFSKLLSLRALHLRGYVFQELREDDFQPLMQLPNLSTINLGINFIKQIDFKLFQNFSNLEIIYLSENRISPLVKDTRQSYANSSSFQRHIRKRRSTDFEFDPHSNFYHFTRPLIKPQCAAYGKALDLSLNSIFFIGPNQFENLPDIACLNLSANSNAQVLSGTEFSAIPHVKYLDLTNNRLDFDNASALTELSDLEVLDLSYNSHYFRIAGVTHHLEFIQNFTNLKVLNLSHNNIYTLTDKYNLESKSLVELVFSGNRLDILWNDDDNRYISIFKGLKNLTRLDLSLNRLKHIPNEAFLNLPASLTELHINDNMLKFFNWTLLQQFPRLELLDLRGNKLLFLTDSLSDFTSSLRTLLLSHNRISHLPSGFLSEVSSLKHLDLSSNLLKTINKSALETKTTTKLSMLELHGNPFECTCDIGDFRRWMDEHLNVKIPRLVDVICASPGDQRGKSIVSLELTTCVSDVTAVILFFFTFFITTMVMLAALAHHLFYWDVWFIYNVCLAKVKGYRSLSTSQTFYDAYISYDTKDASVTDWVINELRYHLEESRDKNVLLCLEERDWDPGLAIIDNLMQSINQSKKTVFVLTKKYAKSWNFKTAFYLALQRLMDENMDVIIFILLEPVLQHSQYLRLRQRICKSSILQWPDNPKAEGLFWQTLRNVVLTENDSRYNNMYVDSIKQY
Protocol: as §1, §2, §3
4) 90 μL of cells were seeded into a 96-well plate with the conjugate at the density of 50,000 cells/well. […]
as §6
as §7, with “Cell activity detection: the calculation formula of cell activity % was as follows.” left out

HEK BLUE hTLR3 = experiment: Cell activity detection (CellTiter-Glo) in hTLR3 cells; type: cell-based, human; conditions: 24 h, maximum concentration 200 nM, read-out: CC50
Protocol: as §1, §2, §4, §5
8) Cell activity detection: the operation was carried out according to the method in the Celltiter-Glo specification, and a chemiluminescence signals (RLU) were detected using the multifunctional microplate reader Flexstation III.
as §7

Conjugate 2: Double-stranded RNAi analog against AGT, D01 GalNAc ligand on sense strand; sense SEQ ID NO: 6, antisense SEQ ID NO: 2 containing Z (sense mA*mU*fCfCmAfCfAfAmUmGmAmGmAfGmUmAmCmA-{D01}; antisense CUCACAUGUACNCUCAUUGUGGAUGACGA; antisense: chemistry not given here; antisense strand modified, includes nucleotide analog Z, further chemistry not fully specified)
> 200 nM: EC50 (hTLR3) | EC50 (hTLR8) | CC50 (HEK BLUE hTLR3)

Conjugate 3: Double-stranded RNAi analog against AGT, D01 GalNAc ligand on sense strand; sense SEQ ID NO: 7, antisense SEQ ID NO: 2 containing Z (sense mA*mU*fCfCmAfCfAfAmUmGmAfGmAmGmUmAmCmA-{D01}; antisense CUCACAUGUACNCUCAUUGUGGAUGACGA; antisense: chemistry not given here; antisense strand modified, includes nucleotide analog Z, further chemistry not fully specified)
> 200 nM: EC50 (hTLR3) | EC50 (hTLR8) | CC50 (HEK BLUE hTLR3)
